Here are results for five molecules from US7585850B2 (Adenobio N.V., priority 2005, dated 2009).

Data set [1] relates to normotensive Wistar rats. Kind of data set: Effect of oral and IV 330A1 on blood pressure of normotensive Wistar rats. The format is in vivo, rat. How it is done: (§1) The experiment was performed in 10 male Wistar rats (340 to 410 g; 5 in the treated group and 5 in the control group). Animals were maintained for two weeks of adaptation in humidity and temperature controlled room and were fed a standard diet (U.A.R, Villemoisson, France). Each animal, (control or treated) was anaesthetized with sodium pentobarbital (6%, 0.9 ml/Kg body weight). The left carotid artery was cannulated with a PE50 polyethylene catheter connected to a pressure transducer (MacLabs, ADInstruments, Hastings, UK). Blood pressure was monitored continuously and recorded. Adb011 was administered orally by gavage at the dose of 50 mg/kg (in Arabic syrup 5%).
(§2) The experiment is similar to example 3.
• 330A1-I (n=4): receiving by gavage the product (50 mg/kg in suspension with Arabic syrup 30 mg/ml) • Control-(n=4)I: receiving by gavage Arabic syrup 30 mg/ml alone • 330A1-II: receiving the product IV (10 mg/kg in suspension with distilled water 30 mg/ml) • Control-II (n=4): receiving IV distilled water

The conditions of data set [2]: in vivo; cited from earlier work.
In data set [3] the test system is normotensive Wistar rats. The experiment in a line: Effect of oral Adb111 (AMP complex) on blood pressure of normotensive Wistar rats and comparison with AMP. The format is in vivo, rat. The protocol: The experiment was performed in 10 male Wistar rats (340 to 410 g; 5 in the treated group and 5 in the control group). Animals were maintained for two weeks of adaptation in humidity and temperature controlled room and were fed a standard diet (U.A.R, Villemoisson, France). Each animal, (control or treated) was anaesthetized with sodium pentobarbital (6%, 0.9 ml/Kg body weight). The left carotid artery was cannulated with a PE50 polyethylene catheter connected to a pressure transducer (MacLabs, ADInstruments, Hastings, UK). Blood pressure was monitored continuously and recorded. […]
as §2

In the next data set the test system is rats. Kind of data set: Effects of Adb011 by the IV route on systemic arterial pressure in rats. It is filed as in vivo, rat. To be noted: 10 mg/kg IV bolus. How it is done:
as §1, §2
• Adb-011 (n=4): receiving IV a bolus of Adb-011 (10 mg/kg in suspension with distilled water 30 mg/ml) • Control (n=3): receiving IV (distilled water)
In the treated group, blood pressure began to decrease after 15 min of the Adb011 administration and reached a significant maximal decrease of 48 mmHg at […].

The test system of another data set is hypoxic rats. Kind of data set: Effect of oral Adb011 on chronic pulmonary hypertension caused by hypoxia in rats. It is filed as in vivo, rat. How it is done: Animals were divided in three groups: • Adb-011 chronic treatment (n=5): receiving by gavage Adb-011 (50 mg/kg in suspension with Arabic syrup, 20 mg/ml) twice a day (morning and evening) for 14 days. • Control (n=6): receiving by gavage vehicle (suspension of Arabic syrup 20 mg/kg). • Adb-011 acute treatment (n=6): receiving by gavage vehicle for 14 days and orally treated with a single dose of Adb-011 on the last day (day of surgery). Rats were placed in a chamber where air was circulated at a pressure of 380 Torr, which corresponds to an altitude of 5500 meters. The chamber was open twice a day for ˜30 minutes to treat animals and to replace food and water. On the day of surgery the animals were removed from the chamber and anesthetized with pentobarbital sodium (60 mg/kg ip). A polyethylene catheter (PE-50) was placed in the aortic arch via the left carotid artery. An introducer was advanced in the right ventricle via the right jugular vein. Adequate placement of both catheters was established by the pressure waveform. Both catheters were connected to a pressure transducer (Biopac MP30, BIOPAC Systems, Inc.). The time-lag between last dose of Adb-011 (in group 1) and blood pressure measurement was 14 hours.

Data set [4] concerns normotensive Wistar rats. The experiment in a line: Effect of oral administration of Adb011 on blood pressure of normotensive Wistar rats. It is filed as in vivo, rat. How it is done: as §1
Results are reported as mean±SEM of n experiments. Multiple measurement analysis was performed using ANOVA, followed by Bonferroni-Dunn test. Statistical significance was accepted for p values less than 0.05.
Blood pressure began to decrease after 30 minutes of Adb-011 administration. It reached a significant maximal decrease of −13.9 mmHg between 70 and 100 min. (with respect to vehicle values, p<0.05 ANOVA multiple measurement analysis followed by a Bonferroni-Dunn test) and returned to normal after 110-120 minutes.

For data set [5] the following is noted: in vivo; cited from earlier work. This is another data set of the same source.
Where [6] appears, read: oral administration, conclusion over doses.
The mark [7] stands for this setting: 50 mg/kg p.o. twice a day for 14 days, chronic hypoxia.
Where [8] appears, read: HxC + A 15 min: single oral dose on day of surgery.
Where [9] appears, read: HxC + A 60 min: single oral dose on day of surgery, 60 min.

Consider `CC(=O)Nc1ccc(C(=O)O)cc1.CC(O)CN(C)C` [330A1], for which the “effect on mean arterial blood pressure” value in the data set with normotensive Wistar rats [1] (10 mg/kg IV) and in the data set with normotensive Wistar rats [1] (50 mg/kg by gavage) was “minor effect” in each case.
Consider `Nc1ncnc2c1ncn2[C@@H]1O[C@H](COP(=O)(O)O)[C@@H](O)[C@H]1O` [AMP, adenosine monophosphate, reference compound], for which the gastrointestinal bioavailability entry in data set [2] is “poor”. In the data set with normotensive Wistar rats [3] (100 mg/kg by gavage), the “time after administration at which blood pressure began to decrease” value (“time after administration … to decrease” below) is listed as 45 min and the “time after which blood pressure returned to normal values” (“time … to normal values” below) came out at 120 min. For the same molecule, in the data set on normotensive Wistar rats [3] (300 mg/kg by gavage), the “time after administration … to decrease” value is 45 min and the “time … to normal values” was determined as 120 min. Besides, the “time for which blood pressure was lowered” value in the data set on normotensive Wistar rats [3] (setting [6]) stood at 60 min.
Take `CC(=O)Nc1ccc(C(=O)O)cc1.CC(=O)Nc1ccc(C(=O)O)cc1.CC(=O)Nc1ccc(C(=O)O)cc1.CC(O)CN(C)C.CC(O)CN(C)C.CC(O)CN(C)C.Nc1ncnc2c1ncn2[C@@H]1O[C@H](CO)[C@@H](O)[C@H]1O` [Adb011]: in the data set on rats, the “maximal decrease of blood pressure” value was determined as 48 mmHg, the “mean arterial blood pressure two hours after injection” value is given as “still very low two hours after injection”, the “time after administration … to decrease” value stood at 15 min and the “time of maximal decrease of blood pressure” value amounted to 15 min. Also, in the data set with hypoxic rats (setting [7]), the “change of right ventricular hypertrophy” value was -75 mg, the “decrease of pulmonary hypertension” value is recorded as 21.5 mmHg and the “effect on systemic pressure” value was “no effect”. Moreover, in the data set with hypoxic rats (HxA: chronic treatment 50 mg/kg p.o. twice a day 14 days, measured 14 h after last dose), the “RVp (right ventricular pressure)” value came to 53.30 ± 461 mmHg. Also, in the data set on hypoxic rats (HxA: chronic treatment 14 days), the “(LV + S)w (left ventricular + septum weight)” value is listed as 729 ± 56, the “C(a − v)O2 (arterial − venous O2 difference)” value is 8.0 ± 0.4 mL O2/dL blood, the “CaO2 (arterial O2 content)” value was 29.2 ± 0.9 mL O2/dL of blood and the Cardiac output is on record as 162 ± 8 mL/min/kg. In the data set with hypoxic rats (HxA: chronic treatment 14 days), the “CvO2 (venous O2 content)” value is 21.2 ± 1.0 mL O2/dL of blood, the “HR (heart rate)” value is 364 ± 15 beat/min, the “MABP (mean arterial blood pressure)” value turned out to be 113 ± 2 mmHg and the “RVw (right ventricular weight)” value was determined as 362 ± 10 mg. In the data set with hypoxic rats (HxA: chronic treatment 14 days), the “SV (stroke volume)” value worked out at 0.45 ± 0.02 mL/kg, the “SVR (systemic vascular resistance)” value was 0.70 ± 0.03, the “SaO2 (arterial oxygen saturation)” value was 92 ± 1 % and the “VO2 (oxygen consumption)” value is reported as 12.81 ± 0.29 mL/min/kg. For the same molecule, in the data set on hypoxic rats (setting [8]), the “(LV + S)w (left ventricular + septum weight)” value was determined as 675 ± 21, the “C(a − v)O2 (arterial − venous O2 difference)” value turned out to be 8.3 ± 0.5 mL O2/dL blood, the “CaO2 (arterial O2 content)” value is recorded as 27.3 ± 1.4 mL O2/dL of blood and the Cardiac output is listed as 164 ± 11 mL/min/kg. For the same molecule, in the data set on hypoxic rats (setting [8]), the “CvO2 (venous O2 content)” value is listed as 19.0 ± 1.5 mL O2/dL of blood, the “HR (heart rate)” value came to 352 ± 12 beat/min, the “MABP (mean arterial blood pressure)” value came out at 107 ± 5 mmHg and the “RVw (right ventricular weight)” value worked out at 436 ± 21 mg. Further, in the data set with hypoxic rats (setting [8]), the “SV (stroke volume)” value amounted to 0.47 ± 0.03 mL/kg, the “SVR (systemic vascular resistance)” value is on record as 0.68 ± 0.06, the “SaO2 (arterial oxygen saturation)” value turned out to be 82 ± 4% and the “VO2 (oxygen consumption)” value worked out at 13.38 ± 0.61 mL/min/kg. In addition, the “RVp (right ventricular pressure)” value in the data set with hypoxic rats (HxC + A 15 min: single oral dose on day of surgery, 15 min) is given as 75.17 ± 0.95 mmHg. In the data set on hypoxic rats (setting [9]), the “HR (heart rate)” value was determined as 329 ± 4 beat/min, the “MABP (mean arterial blood pressure)” value is listed as 92 ± 5 mmHg and the “RVp (right ventricular pressure)” value is recorded as 52.83 ± 3.83 mmHg. For the same molecule, in the data set on hypoxic rats (acute single oral dose, rats with fixed pulmonary hypertension), the “reduction of pulmonary artery pressure” value is recorded as −22 mmHg. In the data set with normotensive Wistar rats [4] (50 mg/kg p.o.), the “time after which blood pressure returned to normal” value lay in the range of 110 to 120 min. For the same molecule, in the data set with normotensive Wistar rats [4] (50 mg/kg p.o. by gavage, anaesthetized rats), the “time after administration … to decrease” value was found to be 30 min. In addition, the “maximal decrease of blood pressure” value in the data set on normotensive Wistar rats [4] (50 mg/kg p.o., with respect to vehicle values, p<0.05) was −13.9 mmHg.
`CC(=O)Nc1ccc(C(=O)O)cc1.CC(=O)Nc1ccc(C(=O)O)cc1.CC(=O)Nc1ccc(C(=O)O)cc1.CC(O)CN(C)C.CC(O)CN(C)C.CC(O)CN(C)C.Nc1ncnc2c1ncn2[C@@H]1O[C@H](COP(=O)(O)O)[C@@H](O)[C@H]1O` [Adb111]: in the data set on normotensive Wistar rats [3] (100 mg/kg by gavage), the “time after administration … to decrease” value is listed as 45 min and the “time … to normal values” is 180 min. Further, in the data set with normotensive Wistar rats [3] (300 mg/kg by gavage), the “time after administration … to decrease” value came out at 45 min and the “time … to normal values” was determined as 180 min. Further, in the data set on normotensive Wistar rats [3] (setting [6]), the “time after oral administration at which blood pressure lowering began” value came out at 45 min and the “time for which blood pressure was lowered” value was “up to 165 min”. Moreover, in the data set with normotensive Wistar rats [3] (oral, comparable doses), the “bioavailability and efficacy compared with natural AMP” value is “better bioavailabity and efficacy over natural AMP”.
Turning to `Nc1ncnc2c1ncn2[C@@H]1O[C@H](CO)[C@@H](O)[C@H]1O` [adenosine], the plasma half-life result in data set [5] is “less than 5 seconds”.
